Literature values as cited in patent publication US4537898A, “Liquid formulations of dihydropyridines” (priority 1983, dated 1985).

solubility in water: 0.2 mg per 100 ml
SMILES: COCCOC(=O)C1=C(C)NC(C)=C(C(=O)OC(C)C)C1c1cccc([N+](=O)[O-])c1 (stereo not shown) [nimodipine, Nimodipine]
